Measured values reported in PMC11984905, “Chiral Switch of Gadopiclenol: New Standards in MRI Probes” (Advanced Science, 2025).
“And” between values parts separate entries of the source, which are not always exact repeats. Equal entries are not always repeated. Where two headings read alike, the source gives them in different places. Marks after values point to notes of the source that are not given here.

What was measured:
[1] = 1H NMRD profiles and 17O NMR relaxometry in water; assay type: physicochemical; settings: for q: number of coordinated water molecules
Description: The magnetic‐field dependence of the longitudinal relaxation rate of water protons (^1H NMRD) were measured in aqueous solution by using a variable field relaxometer equipped with an HTS‐110 3T Metrology Cryogen‐free Superconducting Magnet (Mede, Italy), operating in the overall range of proton Larmor frequencies of 20–120 MHz (0.47–3.00 T). The measurements were performed using the standard inversion recovery sequence (20 experiments, 3 scans) with a 90° pulse width of 3.5 µs. The temperature was controlled with a Stelar VTC‐91 heater airflow. Additional points in the 0.01–10 MHz frequency range were collected on a Fast‐Field Cycling (FFC) Stelar SmarTracer Relaxometer. T 1 values at 500 MHz were collected on a Bruker Avance III NMR spectrometer operating at 11.7 T. The concentration of Gd^3+ in the solutions was determined by using bulk magnetic susceptibility (BMS) shift measurements performed at 11.7 T. For the measurements in the biological fluid, lyophilized plasma matrix (Siemens Healthcare) was added to 1 mL of [Gd(ent‐L2)] (1.0 mM) or Seronorm (Sero) was solubilized in 5 mL [Gd(ent‐L2)] (1.0 mM) solution. ^1H NMRD of the final solution was measured at 310 K.
The spectra were acquired on a Bruker Avance III spectrometer (11.7 T) using a 5 mm probe under temperature control. An aqueous solution of the complexes ([GdL] = 10–15 mM) was enriched to ca. 2.0% of the ^17O isotope (Cambridge Isotope). The transverse relaxation rates (R 2) were measured as a function of temperature in the 278−350 K range. The simultaneous fit of ^1H NMRD and ^17O NMR profiles data was performed using the Micromath Scientist software (version 2.0, Salt Lake City, UT, USA).

[2] = Kinetic inertness: dissociation of Gd(III)-complexes in 0.01–1.0 M HCl followed by HPLC; assay type: physicochemical; settings: for k d at pH = 7.4: dissociation rate calculated at pH 7.4, 25 °C; for k1: proton-assisted dissociation, [H+]≤0.15 M: [Na+]+[H+]=0.15 M
Excerpt: The kinetic inertness of the Gd(III)‐complexes with the different isomers formed by rac‐L1 and rac‐L2 was characterized by the rates of the dissociation reactions taking place in 0.01–1.0 M HCl solution. The dissociation reactions were followed by measuring the integral values of the Gd(III)‐complexes with the different isomers of rac‐L1 and rac‐L2 ligands with HPLC. The conditions of the HPLC experiments for the kinetic studies of the Gd(III)‐complexes with rac‐L1 and rac‐L2 ligands are summarized in Tables S1 and S2 (Supporting Information), respectively. The samples were kept at 25 °C in a well‐closed vessel. For the HPLC analysis, 100 µL samples were withdrawn from the solutions. The measurements were performed with 0.2 mM solution of Gd(III)‐complexes. The pseudo‐first‐order rate constants (k d) were calculated by fitting the HPLC integral – t data pairs to Equation (1). (1) At=Ar−Ave^−kdt+Av where A r, A v, and A t are the integral values of the reactants, the product, and reaction time t. The temperature was maintained at 25 °C and the ionic strength of the solutions was kept constant at [H^+]≤0.15 M, [HCl]+[NaCl] = 0.15 M. The calculation of the kinetic parameters was performed by the fitting of the absorbance – time and relaxation rate – time data pairs with the Micromath Scientist computer program (version 2.0, Salt Lake City, UT, USA).
The dissociation reactions of Gd(III)-complexes with the different isomers formed by rac-L1 and rac-L2 have been studied by HPLC method (Tables S1 and S2) at 25 °C in 0.01 – 1.0 M HCl solution to guarantee the pseudo-first-order kinetic condition. Area values as a function of time for the dissociation reactions of Gd(III)-complexes formed with the different stereoisomers of rac-L1 obtained at 25 °C in 1.0 M HCl solution are shown in Figure S48.
In the presence of HCl excess, the decomplexation of Gd(III)-complexes can be treated as a pseudo-first-order process and the reaction rate can be expressed by Equation (S9), where kd is a pseudo-first-order rate constant, [GdL]t and [GdL]tot are the concentrations of the GdL species at time t and the total concentration of the complex, respectively.
The rates of the dissociation reactions have been studied at different concentrations of HCl ([HCl]=0.01 – 1.0 M, 25 °C). The kd values obtained for the Gd(III)-complexes with the different isomers of rac-L1 and rac-L2 ligands as a function of [H^+] are shown in Figures S49 and S50.
The obtained kd pseudo-first order rate constants are directly proportional to the concentration of H^+. The increase in the kd values with increasing concentration of H^+ can be interpreted in terms of the proton assisted dissociation of Gd(III)-complexes. […] The proton assisted dissociation of Gd(III)-complexes might be explained by the equilibrium formation of a protonated *Gd(HL) intermediate (Equation (S11)), which dissociates spontaneously (Equation (12)).
where k0, and k1 = kGdHL×K^HGdHL are the rate constants characterizing the spontaneous and proton-assisted dissociation of Gd(III)-complexes. The protonation constant (K^HGdHL) of Gd(DOTA)-like complexes are very small (Gd(DOTA): K^HGdHL =14).^[22] By considering very low protonation constant of Gd(III)-complexes with A, C and D isomers of rac-L1 and A’, C’ and D’ isomers of rac-L2 ligands (K^HGdHL<<10), the denominator of Equation (S14) (1>> K^HGdHL [H^+]) can be neglected, so Equation (S14) can be simplified in the form of Equation (S15). The k0 and k1 values of the Gd(III) complexes with A, C and D isomers of rac-L1, and A’, C’ and D’ isomers of rac-L2 ligands have been calculated by fitting of the kinetic data (Figures S49 and S50) to Equation (S15).
The k1 rate and logK^HGdHL protonation constants characterizing the acid-catalyzed decomplexation of Gd(III)-complexes formed with the different stereoisomers of rac-L1 and rac-L2 are presented and compared with those of [Gd(PCTA)], [Gd(DOTA)]^-, [Gd(HP-DO3A)] and [Gd(BT-DO3A)] in Table S19.

[3] = 0.15 M NaCl, 25 °C; cited from earlier work
[4] = 25 °C, cited from earlier work
[5] = 0.15 M NaCl, 25 °C; cited from earlier work; remark: listed apart in the source
[6] = Relaxivity at 21 / 400 MHz and 25 °C in 0.15 M NaCl; assay type: physicochemical; settings: 400 MHz
Description: The relaxivity values were calculated from the longitudinal relaxation time of H2O protons (T 1) measured at 21 MHz on a Stelar relaxometer connected to a Bruker WP80 NMR electromagnet adapted to variable‐field measurements (15−80 MHz proton Larmor frequency). The temperature of the sample holder was controlled with a thermostatted air stream. The longitudinal relaxation time was measured with the “inversion recovery” method (180° – τ – 90°) by using 12 different τ values with typical 90° pulse width of 6.4 µs, 4 scans. The measurements were performed with 1 mM solution of the Gd(III)‐complexes with rac‐L1, ent‐L1, rac‐L2, and ent‐L2 ligands, so the relaxivity values were given as r 1 = […] where T 1p and T 1w were the relaxation time of bulk water protons in the presence and absence of paramagnetic species, respectively. The variable pH relaxivity measurements of Gd(III)‐complexes with rac‐L1, ent‐L1, rac‐L2, and ent‐L2 ligands could be carried out by direct titration of the samples in the pH range 2.5–9.0 (21 MHz, 25 °C, 0.15 M NaCl). The pH was adjusted by stepwise addition of concentrated NaOH or HCl solution.
The stability constant of Gd(III)‐complexes with rac‐L2 and ent‐L2 ligands were determined by the measurement of the proton relaxation rates (r 1) studying the competition reaction of rac‐L2 and ent‐L2 ligands with AAZTA for Gd(III) ion at pH = 4.0 in 0.15 M NaCl solution. In these experiments, the concentration of Gd^3+, rac‐L2, and ent‐L2 ligands was 2.0 mM, while that of the AAZTA was varied between 1.0 and 6.0 mM (5 × 1.5 mL samples). The pH was adjusted to pH 4.0 by stepwise addition of concentrated NaOH or HCl solutions. The samples were kept at 70 °C for a month and then at 25°C for two months in order to attain the equilibrium (the time needed to reach the equilibria was determined by ^1H‐NMR relaxometry). ^1H‐NMR relaxometric measurement of Gd(III) – rac‐L2 – AAZTA and Gd(III) – ent‐L2 – AAZTA systems were performed with a Bruker Avance III 400 (9.4 T) equipped with BB inverse z gradient probe (5 mm). The longitudinal relaxation time (T 1) was measured with the “inversion recovery” method (180° – τ – 90°) by using 12 different τ values with typical 90° pulse width of 12.0 µs, 4 scans at 298 K. The stability constants of [Gd(rac‐L2)] and [Gd(ent‐L2)] complexes were calculated by considering the protonation constants of AAZTA ligand and the stability constant of [Gd(AAZTA)]^− complex (AAZTA: logK 1 ^H = 10.06, logK 2 ^H = 6.50, logK 3 ^H = 3.77, logK 4 ^H = 2.33, logK 5 ^H = 1.51; [Gd(AAZTA)]^−: logK GdL = 18.93, 0.15 M NaCl, 25 °C).^[ [47] ^] The equilibrium constants were calculated with the program PSEQUAD.^[ [48] ^]

## O=C([O-])CCC(C(=O)[O-])N1CCN(C(CCC(=O)[O-])C(=O)[O-])Cc2cccc(n2)CN(C(CCC(=O)[O-])C(=O)[O-])CC1.[Gd+3] (mixture of isomers) [[Gd(rac‐L1)]^3−] [2,2’,2’’-[3,6,9,15-tetraazabicyclo[9.3.1]pentadeca-1(15),11,13-triene-3,6,9-triyl]tris(4-carboxybutanoate)gadolinium]
[1]; 298 K, 1.5 T, water
  ^298K r 1 [1.5 T]: 9.4 mM⁻¹ s⁻¹
[1]; 310 K, 1.5 T, water
  r 1 ^310K [1.5 T]: 6.8 mM⁻¹ s⁻¹
[1]; Table 2
  τ R: 98 ± 2 ps
[1]; Table S20, 298 K
  τ R: 98±2 ps
[1]; fixed in the fitting procedure
  ER: 22^b) kJ mol^-1
  q: 2
[1]; fixed in the fitting procedure, listed as [Gd(rac-L1)]^3-
  q: 2^b)
[1]; residence time of coordinated water 1, 298 K
  τ M1: 103 ± 5 ns
[1]; residence time of coordinated water 2, 298 K
  τ M2: 14 ± 2 ns

## O=C(O)CCC(C(=O)[O-])N1CCN(C(CCC(=O)O)C(=O)[O-])Cc2cccc(n2)CN(C(CCC(=O)O)C(=O)[O-])CC1.[Gd+3] (racemic) [[Gd(rac-L1)] A (RSR/SRS)]
[2]
  k d at pH = 7.4: 1.84×10^-12 s^−1
[2]; listed as RSR/SRS (A)
  k d at pH = 7.4: 1.84 × 10^−12 s^−1
[2]; 25 °C
  k1: (4.6±0.2) ×10^-5 M^-1s^-1

## O=C(O)CCC(C(=O)[O-])N1CCN(C(CCC(=O)O)C(=O)[O-])Cc2cccc(n2)CN(C(CCC(=O)O)C(=O)[O-])CC1.[Gd+3] (racemic) [[Gd(rac-L1)] B (RSS/SRR)]
[2]
  k d at pH = 7.4: 1.28×10^-11 s^−1
[2]; listed as RSS/SRR (B)
  k d at pH = 7.4: 1.28 × 10^−11 s^−1
[2]; 25 °C
  k1: (3.2±0.4) ×10^-4 M^-1s^-1
[2]; protonation constant of the *Gd(HL) intermediate, 25 °C
  K^HGd(HL): 2.0 ± 0.4 M⁻¹

## O=C(O)CCC(C(=O)[O-])N1CCN(C(CCC(=O)O)C(=O)[O-])Cc2cccc(n2)CN(C(CCC(=O)O)C(=O)[O-])CC1.[Gd+3] (racemic) [[Gd(rac-L1)] D (RRS/SSR)]
[2]
  k d at pH = 7.4: 4.95×10^-13 s^−1
[2]; listed as RRS/SSR (D)
  k d at pH = 7.4: 4.95 × 10^−13 s^−1
[2]; 25 °C
  k1: (1.2±0.1) ×10^-5 M^-1s^-1

## O=C(CC[C@H](C(=O)[O-])N1CCN([C@@H](CCC(=O)NCC(O)CO)C(=O)[O-])CCN([C@H](CCC(=O)NCC(O)CO)C(=O)[O-])Cc2cccc(n2)C1)NCC(O)CO.[Gd+3] (relative stereo) [[Gd(rac-L2)] A’ (RSR/SRS)]
[2]
  k d at pH = 7.4: 1.85×10^-12 s^−1
[2]; listed as RSR/SRS (A′)
  k d at pH = 7.4: 1.85 × 10^−12 s^−1
[2]; 25 °C
  k1: (4.7±0.1) ×10^-5 M^-1s^-1

## CC1(N(CC(=O)O)CC(=O)O)CN(CC(=O)O)CCN(CC(=O)O)C1 [AAZTA]
[3]
  logK1^H: 10.06
  logK2^H: 6.50
  logK3^H: 3.77
  logK4^H: 2.33
  logK5^H: 1.51

## O=C([O-])CN1CCN(CC(=O)[O-])Cc2cccc(n2)CN(CC(=O)[O-])CC1.[Eu+3] [[Eu(PCTA)]]
[4]; 1.0 M KCl
  K^HGd(HL): 1.72 M⁻¹
[4]; pH 7.4, 1.0 M KCl
  k d at pH = 7.4: 2.0 × 10^−11 ([Eu(PCTA)]) s^−1 and 2.0×10^-11 s^−1

## CC1(N(CC(=O)[O-])CC(=O)[O-])CN(CC(=O)[O-])CCN(CC(=O)[O-])C1.[Gd+3] [[Gd(AAZTA)]^−, reference compound]
[5]
  logK GdL: 18.93
[6]
  r1p: 6.56 ± 0.08 mM⁻¹ s⁻¹

## CC(O)CN1CCN(CC(=O)[O-])CCN(CC(=O)[O-])CCN(CC(=O)[O-])CC1.[Gd+3] (centres unmarked) [[Gd(HP-DO3A)]]
[4]; 0.15 M NaCl
  k1: 0.00029 M⁻¹ s⁻¹
[4]
  k1: 0.00026 M⁻¹ s⁻¹
[4]; pH 7.4, 0.1 M NaCl
  k d at pH = 7.4: 1.0×10^-11 s^−1
[4]; pH 7.4, 0.15 M NaCl
  k d at pH = 7.4: 1.2×10^-11 s^−1
